Test results as given in the supplement of paper PMC10883282.

What was measured:
Assay in all cases: relative viability vs DMSO control (72 h) (fraction); higher = more viable cells
A204 = system: A204
In short: (§1)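 Sarcoma cell lines were seeded in 384-well plates at densities set to reach 80–90% confluence. After 24 h, 2.5 µl of serially diluted compound was added (source plates 10 mM to 0.0002 mM), and plates were held 72 h at 37 °C, 5% CO2, with 0.1% DMSO vehicle and a 5 µM positive control. Relative viability came from ATPLite readings as percent growth, averaged over up to triplicate wells. Data were rescaled so full viability equals 1 and none equals 0.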

HS729 = system: HS729
In short: as §1

KHOS-240S = system: KHOS-240S
In short: as §1

SW982 = system: SW982
In short: as §1

SYO-1 = system: SYO-1
In short: as §1

NC(=O)c1cnc2[nH]ccc2c1N[C@@H]1[C@@H]2CC3C[C@H]1C[C@@](O)(C3)C2 [Peficitinib]
relative viability
Conditions | A204 | HS729 | KHOS-240S | SW982 | SYO-1
0.00017 µM | 1.06 | 1.04 | 1.01 | 1.03 | 1
0.00051 µM | 1.07 | 1.02 | 1.05 | 1.03 | 0.981
0.00152 µM | 1.07 | 1.03 | 1.04 | 1.016 | 0.985
0.00457 µM | 1.06 | 1.04 | 1.05 | 1.03 | 0.995
0.01372 µM | 1.06 | 0.984 | 1.06 | 1.02 | 0.975
0.04115 µM | 1.07 | 1 | 1.07 | 1.05 | 0.97
0.1235 µM | 1.02 | 0.985 | 1.05 | 1.032 | 0.953
0.3704 µM | 0.959 | 1.02 | 1.04 | 0.986 | 0.933
1.111 µM | 0.913 | 0.977 | 1.03 | 0.934 | 0.705
3.333 µM | 0.705 | 0.9905 | 0.837 | 0.751 | 0.56
10 µM | 0.435 | 0.758 | 0.498 | 0.397 | 0.405

CCCCCCCCCCCCCCCCCCOP(=O)([O-])OC1CC[N+](C)(C)CC1 [Perifosine]
relative viability
Conditions | A204 | HS729 | KHOS-240S | SW982 | SYO-1
0.00017 µM | 1.05 | 1.06 | 1.09 | 1.02 | 1.01
0.00051 µM | 1.08 | 0.9606 | 1.1 | 1.04 | 1.012
0.00152 µM | 1.07 | 1.01 | 1.11 | 1.06 | 0.99
0.00457 µM | 1.07 | 1.02 | 1.1 | 1.08 | 1.01
0.01372 µM | 1.06 | 0.924 | 1.1 | 1.1 | 0.977
0.04115 µM | 1.07 | 0.931 | 1.09 | 1.08 | 0.965
0.1235 µM | 1.08 | 0.987 | 1.09 | 1.1 | 0.97
0.3704 µM | 1.06 | 0.909 | 1.08 | 1.08 | 0.946
1.111 µM | 1.03 | 0.902 | 1.09 | 1.06 | 0.941
3.333 µM | 1.06 | 0.904 | 1.04 | 1.06 | 0.903
10 µM | 1.08 | 0.913 | 0.818 | 0.88 | 0.901

FC(F)(F)c1ccc(CNc2ccc(Cc3c[nH]c4ncc(Cl)cc34)cn2)cn1 [Pexidartinib]
relative viability
Conditions | A204 | HS729 | KHOS-240S | SW982 | SYO-1
0.00017 µM | 1.14 | 1.05 | 1.09 | 1.02 | 1.03
0.00051 µM | 1.14 | 1.01 | 1.07 | 1.05 | 1.03
0.00152 µM | 1.09 | 1.01 | 1.07 | 1.06 | 0.953
0.00457 µM | 1.08 | 0.978 | 1.08 | 1.07 | 0.94
0.01372 µM | 1.07 | 0.955 | 1.08 | 1.05 | 0.927
0.04115 µM | 1.08 | 0.962 | 1.08 | 1.05 | 0.925
0.1235 µM | 1.05 | 0.903 | 1.1 | 1.06 | 0.868
0.3704 µM | 0.898 | 0.902 | 1.06 | 1.05 | 0.8
1.111 µM | 0.576 | 0.861 | 0.997 | 1.09 | 0.733
3.333 µM | 0.463 | 0.767 | 1 | 1.07 | 0.701
10 µM | 0.393 | 0.683 | 0.913 | 1.12 | 0.659

CCOc1cc2ncc(C#N)c(Nc3ccc(OCc4ccccn4)c(Cl)c3)c2cc1NC(=O)/C=C/[C@H]1CCCN1C [Pyrotinib]
relative viability
Conditions | A204 | HS729 | KHOS-240S | SW982 | SYO-1
5.081 pM | 1.04 | 0.989 | 1.07 | 1 | 1.01
15.24 pM | 1.07 | 0.917 | 1.08 | 1.03 | 0.951
45.72 pM | 1.08 | 0.962 | 1.06 | 1.05 | 0.958
0.000137174 µM | 1.04 | 0.9073 | 1.06 | 1.09 | 0.943
0.000411523 µM | 1.06 | 0.875 | 1.05 | 1.05 | 0.92
0.00123457 µM | 1.07 | 0.866 | 1.08 | 1.04 | 0.948
0.0037037 µM | 1.09 | 0.857 | 1.07 | 1.03 | 0.858
0.0111111 µM | 1.11 | 0.918 | 1.06 | 1.03 | 0.9
0.0333333 µM | 1.07 | 0.91 | 1.09 | 1.03 | 0.896
0.1 µM | 1.1 | 0.858 | 1.08 | 1.02 | 0.862
0.3 µM | 1.06 | 0.808 | 1.05 | 0.952 | 0.89
